# Measured values: ChEMBL document CHEMBL1201862, “PubChem BioAssay data set” (2004)
# Active and inactive are the calls of the source.
# Tests used:
# cells [1] = format: functional, cell-based
# [2] = molecular target: T1, Nuclear receptor subfamily 0 group B member 1 (Homo sapiens, UniProt P51843); format: functional, cell-based;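 note: HEK293T cells transfected with SF-1 and DAX-1 plus StAR promoter luciferase reporter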
# T1 sequence (P51843 whole entry): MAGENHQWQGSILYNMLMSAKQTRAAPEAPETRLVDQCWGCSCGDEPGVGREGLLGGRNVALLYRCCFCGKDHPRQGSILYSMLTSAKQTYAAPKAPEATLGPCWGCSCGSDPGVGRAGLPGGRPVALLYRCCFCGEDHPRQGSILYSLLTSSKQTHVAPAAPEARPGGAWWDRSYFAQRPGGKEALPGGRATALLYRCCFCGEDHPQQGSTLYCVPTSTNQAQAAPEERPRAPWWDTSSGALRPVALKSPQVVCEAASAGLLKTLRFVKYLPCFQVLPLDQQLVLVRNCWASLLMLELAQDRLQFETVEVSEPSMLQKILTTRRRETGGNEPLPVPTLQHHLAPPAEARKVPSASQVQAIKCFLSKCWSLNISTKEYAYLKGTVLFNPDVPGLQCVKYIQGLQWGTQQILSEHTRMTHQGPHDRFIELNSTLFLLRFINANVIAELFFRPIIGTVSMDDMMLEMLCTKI
# Vero [3] = assay: Vero cell toxicity, dose response, cytotoxicity control, plate reader, cherry-pick samples (AID 687020); format: functional, cell-based; details: Chlorocebus sabaeus
# [4] = molecular target: T2, Sentrin-specific protease 1 (Homo sapiens, UniProt Q9P0U3); assay: potency of human SENP1 inhibitors, dose response, biochemical, kinetic FRET (AID 651697); format: functional; details: read-out: IC50_Mean
# T2 sequence (Q9P0U3 whole entry): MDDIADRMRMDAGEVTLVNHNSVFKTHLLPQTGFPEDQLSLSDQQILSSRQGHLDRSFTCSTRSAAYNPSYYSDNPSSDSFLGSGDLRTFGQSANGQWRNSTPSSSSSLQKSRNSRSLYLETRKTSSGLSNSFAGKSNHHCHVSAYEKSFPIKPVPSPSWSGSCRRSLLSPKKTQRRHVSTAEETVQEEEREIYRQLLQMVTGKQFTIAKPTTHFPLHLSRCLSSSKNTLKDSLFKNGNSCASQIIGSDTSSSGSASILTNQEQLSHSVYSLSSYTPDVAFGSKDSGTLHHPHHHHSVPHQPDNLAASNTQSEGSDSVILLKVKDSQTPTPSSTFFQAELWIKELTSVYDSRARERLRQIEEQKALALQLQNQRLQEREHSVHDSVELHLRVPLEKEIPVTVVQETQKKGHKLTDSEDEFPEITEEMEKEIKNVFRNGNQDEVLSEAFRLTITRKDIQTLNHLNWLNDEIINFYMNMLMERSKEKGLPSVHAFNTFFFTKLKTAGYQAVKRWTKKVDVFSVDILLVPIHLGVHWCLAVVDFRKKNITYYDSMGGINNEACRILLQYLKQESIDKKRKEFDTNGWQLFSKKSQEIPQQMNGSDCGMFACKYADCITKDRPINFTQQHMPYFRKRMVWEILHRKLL
# [5] = molecular target: T2, Sentrin-specific protease 1; assay: Dose response confirmation of small molecule inhibitors of the catalytic domain of the SUMO protease, SENP1 in a FRET assay.; format: functional; details: read-out: IC50_Mean
# cells [6] = format: functional, cell-based; remark: listed apart in the source
# [7] = molecular target: T3, Trace amine-associated receptor 1 (Homo sapiens, UniProt Q96RJ0); assay: Fluorescence-based cell-based high throughput dose response assay to identify agonists of the human trace amine associated receptor 1 (TAAR1).; format: functional
# T3 sequence (Q96RJ0 whole entry): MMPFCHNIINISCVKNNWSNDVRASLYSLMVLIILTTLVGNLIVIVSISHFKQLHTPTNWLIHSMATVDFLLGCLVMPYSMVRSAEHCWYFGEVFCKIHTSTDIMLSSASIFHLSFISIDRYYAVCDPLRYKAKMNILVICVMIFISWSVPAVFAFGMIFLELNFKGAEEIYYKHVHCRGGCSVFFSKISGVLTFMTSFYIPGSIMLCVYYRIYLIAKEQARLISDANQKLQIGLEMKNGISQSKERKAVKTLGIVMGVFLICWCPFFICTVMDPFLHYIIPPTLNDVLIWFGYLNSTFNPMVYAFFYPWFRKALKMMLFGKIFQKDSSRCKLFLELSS
# [8] = molecular target: T3, Trace amine-associated receptor 1; assay: Counterscreen for agonists of the human trace amine associated receptor 1 (hTAAR1): Fluorescence-based cell-based high throughput dose response assay to identify hTAAR1 agonist that also desensitize TAAR1 receptor response.; format: functional
# cells [9] = format: functional, cell-based; remark: listed apart in the source
# [10] = Luminescence Cell-Based Dose Retest to Confirm Inhibitors of Cancer Stem Cells. [Related pubchem assays (depositor defined):AID2717, AID2721]; format: functional; details: Homo sapiens
# [11] = molecular target: T4, Small ubiquitin-related modifier 1 (Homo sapiens, UniProt P63165); assay: inhibitors of SUMO1 peptide binding, dose response, biochemical, fluorescence polarization, uHTS hits (AID 624382); format: functional; details: read-out: IC50_Mean
# T4 sequence (P63165 whole entry): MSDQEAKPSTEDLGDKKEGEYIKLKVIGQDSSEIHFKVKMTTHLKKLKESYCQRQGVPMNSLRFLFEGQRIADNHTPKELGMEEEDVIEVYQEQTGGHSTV
# [12] = molecular target: T4, Small ubiquitin-related modifier 1; assay: inhibitors of SUMO1 partner interactions, dose response, biochemical, FRET (AID 624383); format: functional; details: read-out: IC50_Mean
# [13] = HeLa cell cytotoxicity, dose response, cytotoxicity control for MgcRacGAP inhibitor project (AID 624300); format: functional
# [14] = molecular target: T5, Rac GTPase-activating protein 1 (Homo sapiens, UniProt Q9H0H5); assay: MgcRacGAP GTPase-activating activity inhibitors, confirmation, biochemical, ADP Hunter fluorescence, primary and confirmatory (AID 624330); format: functional
# T5 sequence (Q9H0H5 whole entry): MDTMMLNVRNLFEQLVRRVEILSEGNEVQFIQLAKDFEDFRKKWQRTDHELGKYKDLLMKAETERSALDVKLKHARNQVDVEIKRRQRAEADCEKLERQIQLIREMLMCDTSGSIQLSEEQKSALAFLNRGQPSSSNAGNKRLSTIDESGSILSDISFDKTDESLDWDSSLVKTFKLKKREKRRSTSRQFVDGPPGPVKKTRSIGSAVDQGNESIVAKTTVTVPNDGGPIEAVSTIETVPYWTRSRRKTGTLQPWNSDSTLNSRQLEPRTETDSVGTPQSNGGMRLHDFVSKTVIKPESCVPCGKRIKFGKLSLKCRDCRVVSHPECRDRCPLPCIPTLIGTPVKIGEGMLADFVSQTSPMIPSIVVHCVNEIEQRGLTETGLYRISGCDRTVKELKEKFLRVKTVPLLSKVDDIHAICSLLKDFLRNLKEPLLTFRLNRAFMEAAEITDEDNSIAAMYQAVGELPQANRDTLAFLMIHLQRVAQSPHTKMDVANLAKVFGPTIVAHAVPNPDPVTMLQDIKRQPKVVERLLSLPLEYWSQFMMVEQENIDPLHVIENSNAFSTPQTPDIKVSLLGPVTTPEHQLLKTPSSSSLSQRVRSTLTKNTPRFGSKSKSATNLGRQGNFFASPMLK
# Streptokinase A = molecular target: T6, Streptokinase A (Streptococcus pyogenes serotype M1, UniProt P10520); assay: S. pyogenes streptokinase expression inhibitors, potency, dose response, plasminogen activation absorbance, OD405 (AID 1914); format: functional, Streptococcus pyogenes M1 GAS;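 note: secreted streptokinase activity via plasminogen activation per viability signal from cell pellet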
# T6 sequence (P10520 whole entry): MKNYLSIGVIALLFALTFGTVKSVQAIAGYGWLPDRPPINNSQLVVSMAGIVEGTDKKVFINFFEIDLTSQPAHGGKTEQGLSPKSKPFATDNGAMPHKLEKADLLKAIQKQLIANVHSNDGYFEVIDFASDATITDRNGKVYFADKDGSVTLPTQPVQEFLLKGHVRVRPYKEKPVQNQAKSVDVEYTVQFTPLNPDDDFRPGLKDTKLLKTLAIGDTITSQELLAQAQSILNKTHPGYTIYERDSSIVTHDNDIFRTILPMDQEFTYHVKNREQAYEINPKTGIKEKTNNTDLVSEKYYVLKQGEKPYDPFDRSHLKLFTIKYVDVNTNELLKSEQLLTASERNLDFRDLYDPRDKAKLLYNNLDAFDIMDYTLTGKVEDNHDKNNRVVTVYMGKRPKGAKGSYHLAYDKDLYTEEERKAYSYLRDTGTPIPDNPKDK
# Streptococcus = assay: Group A Streptococcus viability loss, dose response, counter-screen for streptokinase expression inhibitor project, luminescence, BacTiterGlo (AID 1915); format: functional, organism-based;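 note: potency for reduction of bacterial viability or growth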
# [15] = molecular target: SWI/SNF-related matrix-associated actin-dependent regulator of chromatin subfamily A member 2 (Homo sapiens, UniProt P51531); assay: Luminescence-based cell-based high throughput dose response assay to identify activators of the function of SWI/SNF related, matrix associated, actin dependent regulator of chromatin, subfamily a, member 2 (SMARCA2, BRM).; format: functional
# SWI/SNF-related matrix-associated actin-dependent regulator of chromatin subfamily A member 2, sequence (P51531 whole entry): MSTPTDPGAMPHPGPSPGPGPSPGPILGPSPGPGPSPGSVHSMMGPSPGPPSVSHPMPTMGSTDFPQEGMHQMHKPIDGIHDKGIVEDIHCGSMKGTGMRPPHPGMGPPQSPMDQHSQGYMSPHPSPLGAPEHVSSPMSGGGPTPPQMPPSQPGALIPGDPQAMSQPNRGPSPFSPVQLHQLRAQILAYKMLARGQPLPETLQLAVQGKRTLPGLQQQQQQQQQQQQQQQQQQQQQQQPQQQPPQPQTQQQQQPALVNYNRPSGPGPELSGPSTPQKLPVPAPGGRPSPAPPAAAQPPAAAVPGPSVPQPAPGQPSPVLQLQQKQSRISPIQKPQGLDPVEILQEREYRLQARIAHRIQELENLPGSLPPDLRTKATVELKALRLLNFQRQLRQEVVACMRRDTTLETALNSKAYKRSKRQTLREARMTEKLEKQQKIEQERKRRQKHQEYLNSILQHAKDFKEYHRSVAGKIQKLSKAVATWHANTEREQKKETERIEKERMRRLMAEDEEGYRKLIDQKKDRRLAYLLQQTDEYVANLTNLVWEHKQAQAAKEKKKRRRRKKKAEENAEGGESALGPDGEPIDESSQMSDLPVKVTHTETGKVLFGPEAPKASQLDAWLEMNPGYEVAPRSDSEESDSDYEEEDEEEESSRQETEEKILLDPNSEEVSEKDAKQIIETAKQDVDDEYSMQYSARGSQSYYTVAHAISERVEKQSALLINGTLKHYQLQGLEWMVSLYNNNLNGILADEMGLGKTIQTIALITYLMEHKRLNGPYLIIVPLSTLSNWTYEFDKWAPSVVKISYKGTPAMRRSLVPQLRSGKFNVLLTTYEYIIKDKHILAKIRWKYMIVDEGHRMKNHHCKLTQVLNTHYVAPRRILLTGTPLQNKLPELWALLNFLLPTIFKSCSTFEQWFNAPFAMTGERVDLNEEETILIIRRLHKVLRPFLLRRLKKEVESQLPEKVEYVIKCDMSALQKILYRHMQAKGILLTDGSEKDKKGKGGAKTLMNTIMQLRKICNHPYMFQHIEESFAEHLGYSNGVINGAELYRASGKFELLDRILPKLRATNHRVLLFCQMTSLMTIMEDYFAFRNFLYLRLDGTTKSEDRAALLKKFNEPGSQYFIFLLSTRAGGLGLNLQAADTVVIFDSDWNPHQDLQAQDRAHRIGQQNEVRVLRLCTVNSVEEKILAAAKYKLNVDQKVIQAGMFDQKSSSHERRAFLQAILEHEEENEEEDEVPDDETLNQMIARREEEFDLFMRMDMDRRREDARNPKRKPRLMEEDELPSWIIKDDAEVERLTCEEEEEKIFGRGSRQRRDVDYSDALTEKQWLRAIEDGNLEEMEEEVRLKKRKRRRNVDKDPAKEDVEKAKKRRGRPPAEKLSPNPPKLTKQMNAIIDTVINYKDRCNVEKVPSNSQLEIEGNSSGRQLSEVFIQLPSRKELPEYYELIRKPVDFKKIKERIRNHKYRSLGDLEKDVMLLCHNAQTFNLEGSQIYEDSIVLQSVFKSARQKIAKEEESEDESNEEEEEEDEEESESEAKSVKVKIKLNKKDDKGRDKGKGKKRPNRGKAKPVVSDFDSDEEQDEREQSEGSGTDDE
# [16] = Counterscreen for activators of the function of SWI/SNF related, matrix associated, actin dependent regulator of chromatin, subfamily a, member 2 (SMARCA2, BRM): Luminescence-based cell-based high throughput dose response assay to identify non-selective compounds using the VP16 reporter assay.; format: functional
# [17] = molecular target: T7, DNA repair protein RAD52 homolog (Homo sapiens, UniProt P43351); format: functional, biochemical
# T7 sequence (P43351 whole entry): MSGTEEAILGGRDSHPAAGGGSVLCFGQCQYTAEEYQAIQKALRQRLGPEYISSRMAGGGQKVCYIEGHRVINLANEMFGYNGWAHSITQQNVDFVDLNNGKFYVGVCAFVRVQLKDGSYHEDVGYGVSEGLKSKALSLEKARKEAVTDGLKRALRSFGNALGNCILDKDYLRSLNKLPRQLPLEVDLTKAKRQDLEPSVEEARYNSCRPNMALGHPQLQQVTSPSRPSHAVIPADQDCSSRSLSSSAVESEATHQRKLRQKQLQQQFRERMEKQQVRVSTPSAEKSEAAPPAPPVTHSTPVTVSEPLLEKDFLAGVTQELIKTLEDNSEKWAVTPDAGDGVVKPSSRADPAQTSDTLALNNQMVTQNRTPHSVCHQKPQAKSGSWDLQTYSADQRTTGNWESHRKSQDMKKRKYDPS
# Aminopeptidase N = molecular target: T8, Aminopeptidase N (Plasmodium falciparum FcB1/Columbia, UniProt O96935); assay: P. falciparum M1AAP inhibitors, biochemical, fluorogenic H-Leu-NHMec substrate, 1536-well (AID 1445); parameters: species or system Plasmodium falciparum 3D7, 3D7
# T8 sequence (O96935 whole entry): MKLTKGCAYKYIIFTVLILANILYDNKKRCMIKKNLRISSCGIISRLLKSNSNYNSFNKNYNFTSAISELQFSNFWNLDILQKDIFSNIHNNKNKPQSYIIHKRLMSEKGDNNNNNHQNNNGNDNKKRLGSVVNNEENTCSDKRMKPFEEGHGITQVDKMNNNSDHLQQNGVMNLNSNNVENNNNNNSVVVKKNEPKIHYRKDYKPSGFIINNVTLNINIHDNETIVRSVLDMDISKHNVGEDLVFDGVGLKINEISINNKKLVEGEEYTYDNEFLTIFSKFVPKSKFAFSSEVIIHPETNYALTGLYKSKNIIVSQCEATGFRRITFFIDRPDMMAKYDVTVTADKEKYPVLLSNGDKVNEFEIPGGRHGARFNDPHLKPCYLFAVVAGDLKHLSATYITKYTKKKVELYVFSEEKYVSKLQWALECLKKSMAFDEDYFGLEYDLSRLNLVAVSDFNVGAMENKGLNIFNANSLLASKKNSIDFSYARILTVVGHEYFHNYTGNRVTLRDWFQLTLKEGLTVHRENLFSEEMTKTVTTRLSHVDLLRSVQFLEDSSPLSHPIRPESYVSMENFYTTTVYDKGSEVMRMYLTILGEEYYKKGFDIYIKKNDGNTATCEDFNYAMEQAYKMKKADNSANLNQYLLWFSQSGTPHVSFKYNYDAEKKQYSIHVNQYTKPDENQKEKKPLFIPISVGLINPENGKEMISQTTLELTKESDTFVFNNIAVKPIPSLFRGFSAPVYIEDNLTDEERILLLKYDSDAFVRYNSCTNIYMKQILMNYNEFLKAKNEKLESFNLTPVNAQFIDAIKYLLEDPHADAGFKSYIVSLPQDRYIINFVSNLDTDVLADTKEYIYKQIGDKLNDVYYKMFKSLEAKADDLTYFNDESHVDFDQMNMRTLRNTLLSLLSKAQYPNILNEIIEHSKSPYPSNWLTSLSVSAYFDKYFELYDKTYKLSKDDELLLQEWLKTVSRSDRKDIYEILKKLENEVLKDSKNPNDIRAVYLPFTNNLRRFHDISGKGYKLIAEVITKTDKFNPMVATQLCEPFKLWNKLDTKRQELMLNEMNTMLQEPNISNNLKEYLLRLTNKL
# Vero [18] = assay: cells; format: functional, cell-based; details: Chlorocebus sabaeus
compound,measurement,setting,value
Cc1cc(C)c2nc(NC(=O)c3ccco3)sc2c1,IC50,cells [1],> 67.5 µM (inactive)
same,IC50,[2],> 0.278 µM (active)
CCOc1ccccc1-c1nnc(CS(=O)(=O)c2ccccc2)o1,AC50,Vero [3],23.9 µM (active)
CCN(CC)c1nc2cc(C)ccc2cc1/C=C(\C#N)C(N)=O,IC50,[4],17.3 µM (active)
same,IC50,[5],20 µM (inactive)
COc1cccc(N2CN(CCc3ccccc3)CN=C2S)c1,IC50,cells [6],> 29.9 µM (inactive)
same,EC50,[7],0.758 µM (active)
same,IC50,[8],3.52 µM (active)
same,EC50,cells [9],> 29.9 µM (inactive)
O=C(O)c1cccc(S(=O)(=O)NNc2ccccc2C(F)(F)F)c1,AC50,[10],10.8 µM (active)
same,IC50,[11],> 66.6 µM (inactive)
same,IC50,[12],9.06 µM (active)
CN(C(=O)C1CCC(=O)N(Cc2cccc(F)c2)C1)C1CCCCC1 (stereo not given),IC50,cells [1],> 67.6 µM (inactive)
same,IC50,[2],> 67.6 µM (inactive)
Fc1ccc(CNc2ccc(N3CCN(Cc4ccccc4)CC3)cc2)cc1,CC50,[13],98.7 µM (active)
same,IC50,[14],15.4 µM (active)
O=C(Nc1cccc(-c2nc3ccccc3[nH]2)c1)c1ccc(C(=O)Nc2cccc(-c3nc4ccccc4[nH]3)c2)cc1,EC50,Streptokinase A,> 150 µM (not active)
same,EC50,Streptococcus,61.9 µM (active)
same,IC50,[11],> 66.6 µM (inactive)
same,IC50,[12],6.29 µM (active)
COc1ccc(-c2nc3c(C(=O)NCCN(C)C)cccc3c3ccccc23)cc1,EC50,[15],> 91.2 µM (inactive)
same,EC50,[16],> 91.2 µM (inactive)
same,AC50,[17],2.89 µM (active)
O=C(C[C@H]1C(=O)N(Cc2ccccc2)C[C@@H]1Cc1ccccc1)Nc1ccc(Br)cc1,AC50,Vero [3],31.4 µM (active)
Cn1ccc(C(=O)N/N=C/c2c[nH]c3ccccc23)n1,EC50,[15],> 91.2 µM (inactive)
same,EC50,[16],> 91.2 µM (inactive)
O=C(N/N=C(\CC(=O)c1cccs1)C(F)(F)F)c1ccncc1,IC50,Aminopeptidase N,48.8 µM (active)
same,IC50,Vero [18],24.8 µM (active)
same,IC50,[4],38 µM (inactive)
same,IC50,[5],10.1 µM (active)
